Tests used:
[1] = biological target: T1, Protein Kinase A (Bos taurus, UniProt P00517); test: Protein Kinase A selectivity assay; type: biochemical, bovine; settings: Table 4 kinase selectivity; read-out: IC50, Assay 5 Protein Kinase A
T1 construct: purified from bovine heart; purchased Upstate Biotech 14-114; host or cells: bovine heart
Description: (§1) Assays to test compound inhibition of other kinases were preformed using methods that measure the amount of phosphorylation of a biotinylated peptide substrate. Biotinylated peptide substrates were selected from the literature as appropriate for the enzyme being evaluated. […] Assay conditions vary slightly for each protein kinase, for example, insulin receptor kinase requires 10 mM MnCl2 for activity and Calmodulin-dependent protein kinase requires calmodulin and 2 mM CaCl2. The reaction mixture was dispensed into the wells of a streptavidin coated Flashplate and 1 μl drug stock in 100% DMSO was added to a 100 μl reaction volume resulting in a final concentration of 1% DMSO in the reaction. Enzyme was diluted in 50 mM Tris-HCl pH=8.0, 0.1% BSA and added to each well. The reaction was incubated for one hour at 30° C. in the presence of compound. After one hour the reaction mix was aspirated from the plate and the plate was washed with PBS containing 100 mM EDTA. The plate was read on a scintillation counter to determine ^33P-γ-ATP incorporated into the immobilized peptide. Test compounds were assayed in duplicate at 8 concentrations [100 tM, 10 μM, 1 μM, 100 nM, 10 nM, 1 nM, 100 μM, 10 μM]. A maximum and minimum signal for the assay was determined on each plate. The IC50 was calculated from the dose response curve of the percent inhibition of the maximum signal in the assay according to the formula [max signal−background/test compound signal−background (100)=% inhibition] by graphing the percent inhibition against the log concentration of test compound. Known inhibitor compounds appropriate for the kinase being assayed were also included on each plate.
(§2) VEGF-R (vascular endothelial growth factor receptor-2) is a fusion protein containing a polyhistidine tag at the N-terminus followed by amino acids 786-1343 of the rat VEGF-R2 kinase domain (GenBank Accession #U93306). CDK1 (cyclin dependent kinase 1) is isolated from insect cells expressing both the human CDK1 catalytic subunit and its positive regulatory subunit cyclin B (New England Biolabs, Beverly, Mass., Cat. #6020). CDK4 (cyclin dependent kinase 4) contains amino acids 769 to 921 of the mouse […] protein found in the GST-retinoblastoma protein construct (Santa Cruz Biotechnology, Santa Cruz, Calif.; Cat. #SC-4112). Insulin Receptor Kinase consists of residues 941-1313 of the cytoplasmic domain of the beta-subunit of the human insulin receptor (BIOMOL, Plymouth Meeting, Pa., Cat. #SE-195). Protein Kinase A is the catalytic subunit of cAMP dependent protein kinase-A purified from bovine heart (Upstate Biotech, Lake Placid, N.Y., Cat#14-114). PKC (protein kinase-C) is the gamma or beta isoform of the human protein produced in insect cells (BIOMOL, Plymouth Meeting, Pa., Cat. #SE-143). Casein Kinase 1 is a truncation at amino acid 318 of the C-terminal portion of the rat CK1 delta isoform produced in E.coli (New England Biolabs, Beverly, Mass., Cat. #6030). Casein Kinase 2 includes the alpha and beta subunits of the human CK2 protein produced in E.coli (New England Biolabs, Beverly, Mass., Cat. #6010). Calmodulin Kinase (calmodulin-dependent protein kinase 2) is a truncated version of the alpha subunit of the rat protein produced in insect cells (New England Biolabs, Beverly, Mass., Cat. #6060). Glycogen Synthase Kinase-3 is the beta isoform of the rabbit enzyme produced in E. coli (New England Biolabs, Beverly, Mass., Cat. #6040). MAP Kinase is the rat ERK-2 isoform containing a polyhistidine tag at the N-terminus produced in E. coli. and activated by phosphorylation with MEK1 prior to purification (BIOMOL, Plymouth Meeting, Pa., Cat. #SE-137). EGFR (epidermal growth factor receptor) is purified from human A431 cell membranes (Sigma, St. Louis, Mo., Cat.# E3641). PDGF-R (platelet derived growth factor receptor) is a fusion protein containing a polyhistidine tag at the N-terminus followed by nucleotides 1874-3507 of the human PDGF-R beta subunit kinase domain (Accession #M21616). […]

[2] = biological target: T2, Calmodulin Kinase (calmodulin-dependent protein kinase 2) (Rattus norvegicus, UniProt P11275); test: Calmodulin Kinase selectivity assay; type: biochemical; settings: Table 4 kinase selectivity; read-out: IC50, Assay 10 Calmodulin Kinase
T2 construct: a truncated version of the alpha subunit of the rat protein; purchased New England Biolabs 6060; host or cells: insect cells

[3] = biological target: T3, Glycogen Synthase Kinase-3 (beta isoform) (Oryctolagus cuniculus, UniProt G1T8E2); test: GSK-3 kinase selectivity assay; type: biochemical, rabbit; settings: Table 4 kinase selectivity; read-out: IC50, Assay 11 GSK-3
T3 construct: purchased New England Biolabs 6040; host or cells: E. coli
Description: as §1, §2

[4] = biological target: FGF-R2 (Homo sapiens, UniProt P21802); test: FGF-R2 kinase selectivity assay; type: biochemical; settings: Table 4 kinase selectivity; read-out: IC50, Assay 15 FGF-R2
Description: Assays to test compound inhibition of other kinases were preformed using methods that measure the amount of phosphorylation of a biotinylated peptide substrate. Biotinylated peptide substrates were selected from the literature as appropriate for the enzyme being evaluated. The general procedure used to assay for kinase activity is as follows: A kinase reaction mix was prepared in 50 mM Tris-HCl pH=8, 10 mM MgCl2, 0.1 mM NaVO4, 1 mM DTT, 5-10 μM ATP, 0.25-1 μM biotinylated peptide substrate, 0.2-0.8 μCuries per well ^33P-γ-ATP [2000-3000 Ci/mmol]. Assay conditions vary slightly for each protein kinase, for example, insulin receptor kinase requires 10 mM MnCl2 for activity and Calmodulin-dependent protein kinase requires calmodulin and 2 mM CaCl2. The reaction mixture was dispensed into the wells of a streptavidin coated Flashplate and 1 μl drug stock in 100% DMSO was added to a 100 μl reaction volume resulting in a final concentration of 1% DMSO in the reaction. Enzyme was diluted in 50 mM Tris-HCl pH=8.0, 0.1% BSA and added to each well. The reaction was incubated for one hour at 30° C. in the presence of compound. After one hour the reaction mix was aspirated from the plate and the plate was washed with PBS containing 100 mM EDTA. The plate was read on a scintillation counter to determine ^33P-γ-ATP incorporated into the immobilized peptide. Test compounds were assayed in duplicate at 8 concentrations [100 tM, 10 μM, 1 μM, 100 nM, 10 nM, 1 nM, 100 μM, 10 μM]. A maximum and minimum signal for the assay was determined on each plate. The IC50 was calculated from the dose response curve of the percent inhibition of the maximum signal in the assay according to the formula [max signal−background/test compound signal−background (100)=% inhibition] by graphing the percent inhibition against the log concentration of test compound. Known inhibitor compounds appropriate for the kinase being assayed were also included on each plate.

[5] = biological target: T4, PDGF-R (platelet derived growth factor receptor) (Homo sapiens, UniProt P09619); test: PDGF-R kinase selectivity assay; type: biochemical; settings: Table 4 kinase selectivity; read-out: IC50, Assay 14 PDGF-R
T4 construct: polyhistidine (N)
Description: as §1, §2

T2 sequence (P11275 1-325): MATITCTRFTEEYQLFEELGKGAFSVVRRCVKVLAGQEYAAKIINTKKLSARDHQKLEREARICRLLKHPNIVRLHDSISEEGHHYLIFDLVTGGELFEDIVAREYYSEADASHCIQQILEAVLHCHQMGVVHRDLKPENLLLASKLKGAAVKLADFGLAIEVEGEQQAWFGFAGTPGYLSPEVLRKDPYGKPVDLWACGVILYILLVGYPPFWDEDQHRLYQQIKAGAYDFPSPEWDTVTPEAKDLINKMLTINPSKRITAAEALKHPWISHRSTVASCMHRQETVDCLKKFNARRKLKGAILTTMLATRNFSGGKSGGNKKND
T4 sequence (P09619 554-1106 limits assumed): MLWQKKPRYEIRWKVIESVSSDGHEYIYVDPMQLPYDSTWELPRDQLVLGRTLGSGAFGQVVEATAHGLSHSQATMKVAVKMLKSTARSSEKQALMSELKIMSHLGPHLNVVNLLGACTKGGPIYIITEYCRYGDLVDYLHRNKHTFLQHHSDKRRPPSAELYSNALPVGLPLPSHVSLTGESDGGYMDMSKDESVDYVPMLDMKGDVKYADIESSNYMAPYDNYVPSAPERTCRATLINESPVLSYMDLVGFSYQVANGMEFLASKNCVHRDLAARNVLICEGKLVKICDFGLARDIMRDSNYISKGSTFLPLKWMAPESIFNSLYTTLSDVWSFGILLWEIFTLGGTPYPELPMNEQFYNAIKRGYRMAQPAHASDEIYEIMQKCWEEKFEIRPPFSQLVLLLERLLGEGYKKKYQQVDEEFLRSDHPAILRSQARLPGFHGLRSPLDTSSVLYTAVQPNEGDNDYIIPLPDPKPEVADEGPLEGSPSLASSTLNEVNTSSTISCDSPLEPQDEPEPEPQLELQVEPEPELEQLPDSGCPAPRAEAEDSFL
Chain of FGF-R2 (P21802 22-821, species assumed): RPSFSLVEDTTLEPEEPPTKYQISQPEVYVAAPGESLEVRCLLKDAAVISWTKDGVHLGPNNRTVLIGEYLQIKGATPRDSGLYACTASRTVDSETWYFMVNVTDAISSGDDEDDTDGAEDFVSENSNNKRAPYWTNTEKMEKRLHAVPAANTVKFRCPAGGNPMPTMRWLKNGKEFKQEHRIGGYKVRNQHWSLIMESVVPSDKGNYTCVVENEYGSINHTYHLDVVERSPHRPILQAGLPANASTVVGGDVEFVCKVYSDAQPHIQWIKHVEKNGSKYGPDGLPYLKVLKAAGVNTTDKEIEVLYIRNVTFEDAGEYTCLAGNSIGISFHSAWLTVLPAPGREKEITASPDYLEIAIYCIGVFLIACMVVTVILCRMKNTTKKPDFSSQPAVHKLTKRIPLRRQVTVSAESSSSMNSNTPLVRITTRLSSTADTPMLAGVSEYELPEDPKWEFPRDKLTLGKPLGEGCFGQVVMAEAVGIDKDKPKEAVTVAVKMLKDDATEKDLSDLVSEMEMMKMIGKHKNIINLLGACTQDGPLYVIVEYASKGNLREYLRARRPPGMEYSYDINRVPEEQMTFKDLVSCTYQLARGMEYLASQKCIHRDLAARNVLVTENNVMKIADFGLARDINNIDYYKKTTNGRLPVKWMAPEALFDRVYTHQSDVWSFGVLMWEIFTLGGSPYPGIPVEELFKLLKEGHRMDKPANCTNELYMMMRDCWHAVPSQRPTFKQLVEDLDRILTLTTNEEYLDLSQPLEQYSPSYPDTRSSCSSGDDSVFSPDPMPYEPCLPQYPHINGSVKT
T3 sequence (G1T8E2 1-432): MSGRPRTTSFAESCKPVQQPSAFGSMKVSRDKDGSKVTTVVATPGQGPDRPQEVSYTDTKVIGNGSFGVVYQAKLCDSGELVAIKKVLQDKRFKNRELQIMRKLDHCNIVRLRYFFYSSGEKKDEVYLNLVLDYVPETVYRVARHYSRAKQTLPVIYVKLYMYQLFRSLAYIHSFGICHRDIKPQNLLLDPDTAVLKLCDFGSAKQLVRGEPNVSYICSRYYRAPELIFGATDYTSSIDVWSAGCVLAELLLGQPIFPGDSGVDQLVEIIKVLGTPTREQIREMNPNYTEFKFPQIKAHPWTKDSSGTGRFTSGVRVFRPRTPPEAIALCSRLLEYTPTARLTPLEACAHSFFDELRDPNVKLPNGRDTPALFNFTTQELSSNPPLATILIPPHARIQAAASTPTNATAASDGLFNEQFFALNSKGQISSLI

Row | Structure (SMILES) | IC50 [1] | IC50 [2] | IC50 [3] | IC50 [4] | IC50 [5]
1 | CN(C)CCCNc1cncc(-c2cncc(Nc3cccc(Cl)c3)n2)c1 [Cmd 35] | > 100 µM | > 100 µM | 8.15 µM | 3.07 µM | 2.5 µM
2 | O=C(NCCCO)c1cncc(-c2cncc(Nc3cccc(Cl)c3)n2)c1 [Cmd 39] | > 100 µM | > 100 µM | 0.866 µM | 1.8 µM | 2.8 µM
3 | Clc1cccc(Nc2cncc(-c3cncc(NCCCc4cccnc4)c3)n2)c1 [Cmd 72] | > 100 µM | > 100 µM | 0.318 µM | 0.293 µM | 0.876 µM
4 | Clc1cccc(Nc2cncc(-c3cncc(NCCCN4CCCCC4)c3)n2)c1 [Cmd 73] | > 100 µM | 7.55 µM | 0.491 µM | 0.276 µM | 0.175 µM
5 | Clc1cccc(Nc2cncc(-c3cncc(NCCCn4cccn4)c3)n2)c1 [Cmd 75] | > 100 µM | 27 µM | 0.606 µM | 0.326 µM | –
6 | Clc1cccc(Nc2cncc(-c3cncc(NCCCn4cncn4)c3)n2)c1 [Cmd 76] | > 100 µM | 15.8 µM | 0.196 µM | 0.153 µM | 0.725 µM

Further lines, results first:

Row | IC50 [1] | IC50 [2] | IC50 [3] | IC50 [4] | IC50 [5] | Structure (SMILES)
7 | > 100 µM | > 100 µM | 0.478 µM | 0.207 µM | – | OCCCNc1cncc(-c2cncc(Nc3cccc(Cl)c3)n2)c1 [Cmd 4]
8 | > 100 µM | > 100 µM | 4.02 µM | 2.36 µM | 2.8 µM | OCCCCNc1cncc(-c2cncc(Nc3cccc(Cl)c3)n2)c1 [Cmd 32]
9 | > 100 µM | > 100 µM | 11.4 µM | 1.4 µM | 29.2 µM | CN(C)CCNc1cncc(-c2cncc(Nc3cccc(Cl)c3)n2)c1 [Cmd 33, N′-[5-[6-[(3-chlorophenyl)amino]pyrazinyl]-3-pyridinyl]-N^2,N^2-dimethyl-1,2-ethanediamine]
10 | > 100 µM | 4.89 µM | 0.159 µM | 0.317 µM | 1 µM | Clc1cccc(Nc2cncc(-c3cncc(NCCCc4ccncc4)c3)n2)c1 [Cmd 71]

Reference: patent US6710048B2, “Pyrazine derivatives as modulators of tyrosine kinases” (Ortho-McNeil Pharmaceutical, Inc., priority 2000, dated 2004)
